Our source for the IC50 and Kd values is ChEMBL document CHEMBL5113390, “Design, synthesis and antitumor evaluation of novel 1H-indole-2-carboxylic acid derivatives targeting 14-3-3η protein” (Eur J Med Chem, 2022).

For one experiment, the system named is Bel-7402. The experiment is described as follows: Antiproliferative activity against human Bel-7402 cells assessed as reduction in cell viability incubated for 72 hrs by MTT assay. It is filed as functional, cell-based. Conditions: Bel-7402, 72 h. Background: Tetrazolium dyes change colour on reduction, which living cells bring about.
The subject of the next experiment is Hep 3B2. Briefly: Antiproliferative activity against human Hep3B cells assessed as reduction in cell viability incubated for 72 hrs by MTT assay. Type of experiment: functional, cell-based.
Another experiment relates to HepG2. The experiment is described as follows: Antiproliferative activity against human HepG2 cells assessed as reduction in cell viability incubated for 72 hrs by MTT assay. Type of experiment: functional, cell-based. Conditions: HepG2, 72 h.
The next experiment has as its system SNU-387. Briefly: Antiproliferative activity against human SNU-387 cells assessed as reduction in cell viability incubated for 72 hrs by MTT assay. Type of experiment: functional, cell-based. Conditions: SNU-387, 72 h.
In the next experiment the test system is SMMC-7721. The experiment is described as follows: Antiproliferative activity against human SMMC-7721 cells assessed as reduction in cell viability incubated for 72 hrs by MTT assay. Conditions: SMMC-7721, 72 h. It is filed as functional, cell-based.
Another experiment relates to Bel7402/5-FU. Briefly: Antiproliferative activity against human BEL-7402/5-FU cells overexpressing 14-3-3 eta assessed as reduction in cell viability incubated for 72 hrs by MTT assay. Type of experiment: functional, cell-based.
In another experiment the target is T1, 14-3-3 protein eta (Homo sapiens, UniProt Q04917).
T1 sequence (Q04917 whole entry): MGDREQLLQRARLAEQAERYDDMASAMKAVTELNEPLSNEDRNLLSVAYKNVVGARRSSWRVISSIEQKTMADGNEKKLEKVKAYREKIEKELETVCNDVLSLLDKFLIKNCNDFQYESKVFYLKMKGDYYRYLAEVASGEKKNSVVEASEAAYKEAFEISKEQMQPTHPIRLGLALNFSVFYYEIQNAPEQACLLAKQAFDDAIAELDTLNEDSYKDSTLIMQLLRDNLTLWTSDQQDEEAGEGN
The experiment is described as follows: Binding affinity to 14-3-3 eta (unknown origin) assessed as dissociation constant by biolayer interferometry assay. For orientation: In BLI a coated tip is dipped into the sample, and binding shifts an interference pattern.

As a reminder, the IC50 is the point on the concentration scale where inhibition reaches its midpoint. On to `CCNC(=O)c1c(CNCc2ccc(OC)cc2)c2ccccc2n1Cc1ccc(OC)cc1`, for which, in the experiment with Bel-7402, the IC50 was 58.9 µM.

For `COc1ccc(Cn2c(C(=O)O)c(CNCc3cc(OC)ccc3O)c3ccc(C)cc32)cc1`, the IC50 in the experiment on Bel-7402 was greater than 50 µM.

Consider `COc1cccc(CNCc2c(C(=O)O)n(Cc3ccc(C)cc3)c3cc(C)ccc23)c1`, for which the IC50 in the experiment on Hep 3B2 worked out at 6.33 µM; in the experiment with HepG2, 5.05 µM; in the experiment on Bel-7402 it was 5.67 µM; in the experiment with SNU-387, 5.29 µM; in the experiment on SMMC-7721, 3.44 µM; in the experiment with Bel7402/5-FU, 7.31 µM.

Broadly, the Kd is the constant that tells how readily two partners part at equilibrium. In the case of `O=[As][As+](=O)[O-]` (centres undefined) [ARSENIC TRIOXIDE], the Kd at 14-3-3 protein eta is 110 µM.

As to `COc1cccc(CNCc2c(C(=O)O)n(Cc3ccc(O)cc3)c3cc(C(C)C)ccc23)c1`, the IC50 with Hep 3B2 was 5.34 µM; in the experiment with HepG2, 1.63 µM; in the experiment with Bel-7402, 7.08 µM; in the experiment on SNU-387, 5.13 µM; in the experiment with SMMC-7721, 3.73 µM; in the experiment with Bel7402/5-FU, greater than 50 µM. Further, the Kd on 14-3-3 protein eta was determined as 74 µM.

Regarding `COc1cccc(CNCc2c(C(=O)O)n(Cc3ccccc3F)c3cc(C)ccc23)c1`, the Kd at 14-3-3 protein eta was greater than 200 µM. In addition, the half-maximal inhibitory concentration (IC50) with Bel-7402 is greater than 50 µM.

For the molecule `COc1ccc(Cn2c(C(=O)O)c(CNCc3cccc(O)c3)c3ccc(C)cc32)cc1`, the half-maximal inhibitory concentration (IC50) is 11.8 µM with Hep 3B2; 4.52 µM in the experiment with HepG2; 19.8 µM in the experiment with Bel-7402; 9.91 µM in the experiment on SNU-387; 34.8 µM in the experiment with SMMC-7721; greater than 50 µM in the experiment with Bel7402/5-FU.

Take `COc1cccc(CNCc2c(C(=O)O)n(Cc3ccc(C)cc3)c3ccccc23)c1`: the IC50 worked out at 14.5 µM with Hep 3B2; 14 µM with HepG2; 21.5 µM in the experiment with Bel-7402; 14.3 µM with SNU-387; 6.27 µM in the experiment on SMMC-7721; 9.33 µM in the experiment on Bel7402/5-FU.

With `COc1ccc(Cn2c(C(=O)O)c(CNCc3cccc(O)c3)c3ccc(C(C)C)cc32)cc1`, the concentration for half-maximal inhibition (IC50) in the experiment with Hep 3B2 is 6.6 µM; in the experiment on HepG2, 4.92 µM; with Bel-7402 it was 9.27 µM; in the experiment on SNU-387, 6.86 µM; in the experiment with SMMC-7721, 5.03 µM; with Bel7402/5-FU, 15.2 µM. On 14-3-3 protein eta, the Kd amounted to 22 µM.

With `COc1ccc(Cn2c(C(=O)O)c(CNCc3cccc(OC)c3)c3ccc(C)cc32)cc1`, in the experiment with Bel-7402, the IC50 was 9.83 µM.

As for `COc1ccc(Cn2c(C(=O)O)c(CNCc3cccc(O)c3)c3ccccc32)cc1`, the IC50 in the experiment on Bel-7402 is greater than 50 µM.

Consider `COc1cccc(CNCc2c(C(=O)O)n(Cc3ccc(F)cc3)c3ccccc23)c1`, for which, on 14-3-3 protein eta, the Kd is 160 µM. In addition, the IC50 in the experiment with Bel-7402 was greater than 50 µM.

For `COc1cccc(CNCc2c(C(=O)O)n(Cc3ccc(O)cc3)c3cc(C)ccc23)c1`, the IC50 with Bel-7402 was greater than 50 µM.

With `COc1ccc(Cn2c(C(=O)O)c(CNCc3ccc(O)c(OC)c3)c3ccccc32)cc1`, on 14-3-3 protein eta, the equilibrium dissociation constant (Kd) turned out to be 140 µM. Also, in the experiment with Bel-7402, the IC50 was greater than 50 µM.

With `COc1ccc(Cn2c(C(=O)O)c(CN(C)Cc3cccc(OC)c3)c3ccc(C)cc32)cc1`, the IC50 in the experiment with Hep 3B2 was 14.5 µM; in the experiment with HepG2, 15.4 µM; in the experiment with Bel-7402, 33 µM; in the experiment with SNU-387 it was 20.1 µM; in the experiment on SMMC-7721, 11 µM; with Bel7402/5-FU, 7.47 µM. For the same molecule, the Kd on 14-3-3 protein eta was greater than 200 µM.

In the case of `COc1cccc(CNCc2c(C(=O)O)n(Cc3ccc(O)cc3)c3ccccc23)c1`, in the experiment with Bel-7402, the IC50 is greater than 50 µM.

Turning to `COc1ccc(Cn2c(C(=O)O)c(CNCc3ccc(O)c(OC)c3)c3ccc(C(C)C)cc32)cc1`, the IC50 in the experiment on Hep 3B2 came out at 4.71 µM; in the experiment with HepG2 it was 3.66 µM; with Bel-7402, 8.38 µM; with SNU-387 it was 5.4 µM; in the experiment with SMMC-7721 it was 5.83 µM; with Bel7402/5-FU, 7.9 µM.

In the case of `COc1ccc(Cn2c(C(=O)O)c(CNCc3cccc(OC)c3)c3ccccc32)cc1`, in the experiment with Bel-7402, the IC50 was 52.9 µM.

For `COc1cccc(CNCc2c(C(=O)O)n(Cc3ccccc3)c3ccccc23)c1`, in the experiment with Bel-7402, the IC50 is greater than 50 µM.

In the case of `COc1ccc(Cn2c(C(=O)O)c(CNCc3cccc(OC)c3)c3ccc(C(F)F)cc32)cc1`, the IC50 in the experiment on Bel-7402 is greater than 50 µM.

In the case of `COc1ccc(Cn2c(C(=O)O)c(CNC(=O)c3cccc(OC)c3)c3ccc(C)cc32)cc1`, on 14-3-3 protein eta, the Kd was determined as 56 µM. Further, the IC50 in the experiment with Bel-7402 was greater than 50 µM.

Turning to `CNC(=O)c1cc(Oc2ccc(NC(=O)Nc3ccc(Cl)c(C(F)(F)F)c3)cc2)ccn1` [SORAFENIB], the IC50 came to 5.49 µM with Hep 3B2; 3.3 µM in the experiment on HepG2; 6.03 µM in the experiment on Bel-7402; 12.3 µM with SNU-387; 4.88 µM with SMMC-7721; 13.3 µM with Bel7402/5-FU.

Turning to `COc1cccc(CNCc2c(C(=O)O)n(Cc3ccccc3)c3cc(C)ccc23)c1`, the IC50 with Hep 3B2 turned out to be 7.31 µM; in the experiment on HepG2, 5.21 µM; in the experiment on Bel-7402, 12.5 µM; in the experiment with SNU-387 it was 8.17 µM; with SMMC-7721 it was 4.72 µM; in the experiment on Bel7402/5-FU, 12.1 µM.

Consider `COc1ccc(Cn2c(C(=O)O)c(CNCc3ccc(O)c(OC)c3)c3ccc(C)cc32)cc1`, for which the IC50 was 8.2 µM in the experiment with Hep 3B2; 3.74 µM in the experiment on HepG2; 13.3 µM in the experiment with Bel-7402; 6.15 µM in the experiment on SNU-387; 7.73 µM with SMMC-7721; greater than 50 µM with Bel7402/5-FU. Also, at 14-3-3 protein eta, the Kd is greater than 200 µM.

For `COc1cccc(CNCc2c(C(=O)O)n(Cc3ccc(N)cc3)c3cc(C(C)C)ccc23)c1`, the IC50 was 11.2 µM in the experiment on Hep 3B2; 7.4 µM in the experiment with HepG2; 9.57 µM in the experiment with Bel-7402; 9.01 µM in the experiment with SNU-387; 11.3 µM in the experiment on SMMC-7721; greater than 50 µM in the experiment with Bel7402/5-FU.

Regarding `COc1cccc(CNCc2c(C(=O)O)n(Cc3ccccc3)c3cc(C(C)C)ccc23)c1`, the IC50 with Hep 3B2 was 4.11 µM; with HepG2, 3.18 µM; in the experiment with Bel-7402, 5.9 µM; with SNU-387, 5.09 µM; in the experiment on SMMC-7721, 3.53 µM; with Bel7402/5-FU it was 5.92 µM. Further, the Kd on 14-3-3 protein eta amounted to 55 µM.

Consider `COc1cccc(CNCc2c(C(=O)O)n(Cc3ccccc3F)c3ccccc23)c1`, for which the IC50 in the experiment with Bel-7402 was greater than 50 µM.

As to `COc1ccc(Cn2c(C(=O)O)c(CNCc3cccc(OC)c3)c3ccc(C(F)(F)F)cc32)cc1`, the IC50 in the experiment on Bel-7402 was greater than 50 µM.

For the molecule `COc1cccc(CNCc2c(C(=O)O)n(Cc3ccccc3F)c3cc(C(C)C)ccc23)c1`, the IC50 was found to be 5.19 µM with Hep 3B2; 3.3 µM with HepG2; 5.59 µM with Bel-7402; 6.09 µM in the experiment with SNU-387; 3.23 µM in the experiment on SMMC-7721; 5.21 µM in the experiment on Bel7402/5-FU. Besides, the Kd at 14-3-3 protein eta turned out to be 37 µM.
